Values quoted from earlier work in patent publication US20250282901A1, “POLYMERIC CHELATORS CROSS-LINKED WITH HIGH MOLECULAR WEIGHT CROSS-LINKERS” (THE UNIVERSITY OF KANSAS, priority 2021, published 2025).

Which “relative iron binding constant” value (Fe(III)) does the source give for `O=C(N[C@H]1COC(=O)[C@@H](NC(=O)c2cccc(O)c2O)COC(=O)[C@@H](NC(=O)c2cccc(O)c2O)COC1=O)c1cccc(O)c1O` [Enterobactin] here?
The value was 35.5.

And the “Log K” value (natural iron chelator)?
Its value is 52.
